This note sets out measurements from patent US20220388964A1 (HiberCell, Inc., priority 2019, published 2022).

In the assay the target is GCN2 (Homo sapiens, UniProt Q9P2K8). Put plainly: TR-FRET biochemical assay for inhibition of GCN2 (Example 106, for Example 1-4BB). (TR-FRET usually uses a lanthanide donor and a delayed reading to cut background.)

Some results are limits rather than exact numbers.

GCN2, sequence (Q9P2K8 whole entry): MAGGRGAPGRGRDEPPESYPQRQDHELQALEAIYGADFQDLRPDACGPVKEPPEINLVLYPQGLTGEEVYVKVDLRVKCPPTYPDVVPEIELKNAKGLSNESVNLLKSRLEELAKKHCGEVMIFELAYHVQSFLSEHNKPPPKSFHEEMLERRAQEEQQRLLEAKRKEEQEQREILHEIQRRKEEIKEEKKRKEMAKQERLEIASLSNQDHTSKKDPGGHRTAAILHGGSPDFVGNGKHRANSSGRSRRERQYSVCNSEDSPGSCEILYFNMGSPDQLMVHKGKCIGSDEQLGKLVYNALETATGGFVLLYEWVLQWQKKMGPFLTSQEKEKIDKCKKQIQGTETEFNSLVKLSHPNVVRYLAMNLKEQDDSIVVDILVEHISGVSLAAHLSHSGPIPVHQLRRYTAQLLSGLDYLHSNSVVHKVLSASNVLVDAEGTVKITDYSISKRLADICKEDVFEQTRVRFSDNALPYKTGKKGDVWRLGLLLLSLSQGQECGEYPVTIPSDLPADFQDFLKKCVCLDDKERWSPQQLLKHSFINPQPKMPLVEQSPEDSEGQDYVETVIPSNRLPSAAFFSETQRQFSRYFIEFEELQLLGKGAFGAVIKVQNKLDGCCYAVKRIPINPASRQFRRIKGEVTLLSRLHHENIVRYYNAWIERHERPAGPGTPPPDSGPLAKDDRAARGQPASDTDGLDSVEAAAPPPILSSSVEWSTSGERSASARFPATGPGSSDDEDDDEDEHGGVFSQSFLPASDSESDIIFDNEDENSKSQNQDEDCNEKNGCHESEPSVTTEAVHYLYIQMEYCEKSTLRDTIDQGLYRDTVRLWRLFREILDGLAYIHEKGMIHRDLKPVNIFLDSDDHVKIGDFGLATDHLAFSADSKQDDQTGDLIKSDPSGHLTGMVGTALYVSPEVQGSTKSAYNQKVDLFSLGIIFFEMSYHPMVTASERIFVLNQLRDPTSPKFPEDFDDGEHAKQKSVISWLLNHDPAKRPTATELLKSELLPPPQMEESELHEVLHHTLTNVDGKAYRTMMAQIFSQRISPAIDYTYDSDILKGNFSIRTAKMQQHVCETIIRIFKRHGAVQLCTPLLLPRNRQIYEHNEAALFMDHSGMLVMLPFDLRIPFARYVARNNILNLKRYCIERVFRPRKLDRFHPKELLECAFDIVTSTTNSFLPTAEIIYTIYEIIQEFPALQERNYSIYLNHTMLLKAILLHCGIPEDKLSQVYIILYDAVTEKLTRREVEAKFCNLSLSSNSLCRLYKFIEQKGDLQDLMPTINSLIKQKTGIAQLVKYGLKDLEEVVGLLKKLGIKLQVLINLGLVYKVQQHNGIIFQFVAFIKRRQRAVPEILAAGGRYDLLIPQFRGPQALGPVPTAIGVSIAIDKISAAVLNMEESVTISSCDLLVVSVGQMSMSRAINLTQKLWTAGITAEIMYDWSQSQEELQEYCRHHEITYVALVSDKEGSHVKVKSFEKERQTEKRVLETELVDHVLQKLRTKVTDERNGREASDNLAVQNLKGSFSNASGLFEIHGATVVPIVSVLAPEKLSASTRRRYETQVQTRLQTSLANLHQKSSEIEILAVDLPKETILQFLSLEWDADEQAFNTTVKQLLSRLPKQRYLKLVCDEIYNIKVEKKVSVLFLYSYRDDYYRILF

What is called IC50 is the concentration that gives 50% inhibition. A lower IC50 goes with greater potency. `O=C(NCCCO)c1n[nH]c2c(F)c(-c3c(F)ccc(NS(=O)(=O)c4cccn5ccnc45)c3F)ccc12` [Example 3AR, 6-(2,6-difluoro-3-(imidazo-[1,2-a]pyridine-8-sulfon-amido)phenyl)-7-fluoro-N-(3-hydroxypropyl)-1H-indazole-3-carboxamide] returned an IC50 (Table 9) of 2500 to 10000 nM. The molecule `COc1ncc(F)cc1S(=O)(=O)Nc1cc(F)cc(-c2ccc3c(C(=O)N[C@@H]4CCN(C)C4)n[nH]c3c2F)c1F` [Example 3BS, 6-(3-((5-fluoro-2-methoxy-pyridine)-3-sulfonamido)-2,5-difluorophenyl)-7-fluoro-N-((R)-1-methylpyrrolidin-3-yl)-1H-indazole-3-carboxamide] showed an IC50 (Table 9) below 500 nM.

Turning to `COc1ncc(C#N)cc1S(=O)(=O)Nc1ccc(F)c(-c2ccc3c(C(N)=O)n[nH]c3c2F)c1F` [Example 4D], the half-maximal inhibitory concentration (IC50) (Table 9) is below 500 nM.

Where the note is “Table 8”, `COc1ncc(Cl)cc1S(=O)(=O)Nc1ccc(F)c(-c2ccc3c(C(=O)NCC(C)C)n[nH]c3c2F)c1F` [Example 2CJ, 6-(3-((5-chloro-2-methoxy-pyridine)-3-sulfonamido)-2,6-difluorophenyl)-7-fluoro-N-isobutyl-1H-indazole-3-carboxamide] yielded an IC50 below 500 nM. Same read-out and setting: then `COc1ncc(Cl)cc1S(=O)(=O)Nc1ccc(F)c(-c2ccc3c(C(=O)NCCN(C)C)n[nH]c3c2F)c1F` [Example 2CF, 6-(3-((5-chloro-2-methoxy-pyridine)-3-sulfonamido)-2,6-difluorophenyl)-N-(2-(di-methylamino)ethyl)-7-fluoro-1H-indazole-3-carboxamide], with below 500 nM. For the molecule `COc1ncncc1S(=O)(=O)Nc1ccc(F)c(-c2ccc3c(C(=O)NCCCO)n[nH]c3c2F)c1F` [Example 3CL, 6-(2,6-difluoro-3-((4-methoxypyrimidine)-5-sulfonamido)phenyl)-7-fluoro-N-(3-hydroxypropyl)-1H-indazole-3-carboxamide], the IC50 (Table 9) was above 10000 nM.

For the setting “Table 8”, `Cc1cnc(C)c(S(=O)(=O)Nc2ccc(F)c(-c3ccc4c(-c5ncc[nH]5)n[nH]c4c3F)c2F)c1` [Example 2AH, N-(2,4-difluoro-3-(7-fluoro-3-(1H-imidazol-2-yl)-1H-indazol-6-yl)phenyl)-2,5-dimethyl-pyridine-3-sulfonamide] returned an IC50 below 500 nM.

`COc1ncc(Cl)cc1S(=O)(=O)Nc1ccc(F)c(-c2ccc3c(C(=O)Nc4c[nH]nc4C)n[nH]c3c2F)c1F` [Example 3CS, 6-(3-((5-chloro-2-methoxy-pyridine)-3-sulfonamido)-2,6-difluorophenyl)-7-fluoro-N-(3-methyl-1H-pyrazol-4-yl)-1H-indazole-3-carboxamide] registered an IC50 (Table 9) below 500 nM. Molecule `O=S(=O)(Nc1ccc(F)c(-c2ccc3c(-c4ncc[nH]4)n[nH]c3c2F)c1F)c1cc(Cl)cc(CO)c1Cl` [Example 2AF, 2,5-dichloro-N-(2,4-difluoro-3-(7-fluoro-3-(1H-imidazol-2-yl)-1H-indazol-6-yl)-phenyl)-3-(hydroxyl-methyl)benzenesulfonamide] displayed a 50% inhibitory concentration (IC50) (Table 8) below 500 nM.

`Cn1cc(NC(=O)c2n[nH]c3c(F)c(-c4c(F)ccc(NS(=O)(=O)c5cc(F)cc6c5CCC6O)c4F)ccc23)cn1` (stereo not shown) [Example 4AI] had an IC50 (Table 9) below 500 nM. As for `O=C1CCc2c1cc(F)cc2S(=O)(=O)Nc1ccc(F)c(-c2ccc3c(C(=O)Nc4cn[nH]c4)n[nH]c3c2F)c1F` [Example 4AD], where the note is “Table 9”, the 50% inhibitory concentration (IC50) was below 500 nM. `Cc1cccc(S(=O)(=O)Nc2ccc(F)c(-c3ccc4c(-c5ncc[nH]5)n[nH]c4c3F)c2F)c1C` [Example 2AI, N-(2,4-difluoro-3-(7-fluoro-3-(1H-imidazol-2-yl)-1H-indazol-6-yl)phenyl)-2,3-dimethylbenzenesulfonamide]: the IC50 (Table 8) was below 500 nM. `O=S(=O)(Nc1ccc(F)c(-c2ccc3c(-c4ncc[nH]4)n[nH]c3c2F)c1F)c1cccc(Cl)c1Cl` [Example 2BL, 2,3-dichloro-N-(2,4-difluoro-3-(7-fluoro-3-(1H-imidazol-2-yl)-1H-indazol-6-yl)phenyl)-benzenesulfonamide] returned a concentration for half-maximal inhibition (IC50) (Table 8) below 500 nM.
